From patent publication US20240285557A1, “PHARMACEUTICAL COMPOSITION COMPRISING LIPASE INHIBITOR FOR TREATMENT OR TREATMENT OF RNA VIRAL INFECTIONS” (priority 2021, published 2024) come the findings set out here.

For series [1], the system named is Porcine sapovirus (Cowden). The conditions noted are these: Porcine sapovirus (Cowden).
The test system of series [2] is Porcine epidemic diarrhea coronavirus (QIAP1401). In words: organism not typed. The settings on record: Vero C1008, 18 h.
The test system of series [3] is Influenza A virus (H1N1) (PR8). The conditions noted are these: Influenza A virus (H1N1) (PR8).
For series [4], the system named is SARS-COV-2, IAV, BCOV, PEDV, RVA, PRRSV, and PSaV. Nature of the series: Viral genome copy (real-time PCR) and progeny virus production in cells infected with seven RNA viruses. The class given is cell-based. The conditions noted are these: 1, 10, and 20 μM; dose-dependent, all seven viruses. An excerpt: Subsequently, each well was washed three times with phosphate-buffered saline, followed by the addition of the respective viral culture media.
Subsequently, each plate underwent three cycles of freezing and thawing to detach the cells from each well for subsequent experiments.
To analyze the inhibitory effects of atglistatin and CAY10499 on the genome copies of each virus, RNA was extracted using the RNeasy mini kit (Qiagen). The extracted RNA was then used to synthesize cDNA using the TOPscript™ cDNA Synthesis kit (Enzynomics), which includes random hexamer and poly(rA)-oligo(dT). Afterward, real-time PCR was performed on the synthesized cDNA in the TOPreal™ qPCR 2× PreMix (Enzynomics) solution in the presence of specific primers for SARS-COV-2 nucleocapsid (N), influenza A virus PB1, bovine coronavirus spike (S), porcine epidemic diarrhea coronavirus nucleocapsid (N), bovine species A rotavirus VP6, porcine reproductive and respiratory syndrome virus matrix (M), and porcine sapovirus VPg, using the LineGene 9600 Plus Real-time PCR detection system (Bioer, Hangzhou, China).
To analyze the inhibitory effects of atglistatin and CAY10499 on the production of progenies of the viruses, the supernatant obtained after three cycles of freezing and thawing was serially ten-fold diluted. […] After adsorption, each well was washed twice with phosphate-buffered saline (pH 7.4), followed by the addition of the respective culture media.
Then, after removal of the supernatants, the cells were fixed with 4% paraformaldehyde for 15 minutes and each well was washed thrice with phosphate-buffered saline and treated with 0.2% Triton X-100 at 20° C. for 10 minutes.
After three washes with phosphate-buffered saline, the wells were treated with 100- to 200-fold diluted primary antibodies to the spike protein of SARS-COV-2, the nucleoprotein protein of influenza A virus, the spike protein of bovine coronavirus, the nucleocapsid protein of porcine epidemic diarrhea coronavirus, the VP6 protein of bovine species A rotavirus, the matrix protein of porcine reproductive and respiratory syndrome virus, and the VPg protein of porcine sapovirus, respectively, and applied to a refrigerator at 4° C. for 12 hours.
Subsequently, the supernatant was removed, and each well was washed thrice with phosphate-buffered saline, followed by incubation with a 100- to 200-fold dilution of a secondary antibody conjugated with Alexa Fluor 488 or fluorescein isothiocyanate at room temperature for 2 hours.
Each virus was allowed to adsorb onto the cells which were then cultured in a freshly changed medium containing DABPU-EM or DABPU-DE. Thereafter, the cells were detached from the wells for subsequent experiments.
(In general: Quantitative PCR measures a nucleic acid by following its amplification.)

In series [5] the test system is Species A Rotavirus (NCDV). The settings on record: Species A Rotavirus (NCDV).
In series [6] the test system is SARS-COV-2 strain KCDC03, KDCA51463, or KDCA55905. Nature of the series: Proliferation of SARS-CoV-2 in various cultured cells. Type of series: cell-based. The settings on record: Vero E6, Caco-2, Calu-3 cells (FIGS. 21a to 21f); vs solvent (vehicle).
Series [7] concerns Bovine coronavirus (KWD20). The conditions noted are these: Bovine coronavirus (KWD20).
Series [8] relates to influenza A virus PR8 strain. In words: Influenza A virus-infected mice treated with lipase inhibitor. The class given is in vivo, C57BL/6J mice. The procedure: For use in verifying the antiviral effect of lipase inhibition in animals infected with influenza A virus, 150 mg/ml of atglistatin and 150 mg/ml of CAY10499 were dissolved in DMSO. To evaluate the antiviral effect depending on the concentration, the drugs were prepared at concentrations of 1.000, 0.500, 0.100, 0.010, and 0.001 mg/ml. […] The drugs were completely dissolved by vortexing.
For evaluating the antiviral efficacy of CAY10499, mouse groups were prepared in the same manner with the exception of using CAY10499 instead of atglistatin.
Influenza A virus inoculation was carried out on anesthetized mice via an intranasal route at 1,000 PFU per mouse, following the same procedure as above. In cases where the virus was not injected, only phosphate-buffered saline was administered. Observations were made for 15 days, during which survival rates, body weight, and clinical symptoms were monitored and recorded daily. […] Drug treatment began two days after the inoculation of influenza A virus.
The survival rate, which was 100% with a 0% mortality rate on day 0 of the infection, was measured daily over 15 days, and compared with the survival rate of the virus-injected and untreated group. Statistical significance was analyzed using the Log Rank Test, with a p value of 0.05 or […] considered significant.
Each group consisted of four seven-week-old female wild-type C57BL/6J mice, acclimatized for one week, and used in the experiment at eight weeks of age.
Mice were inoculated with influenza A virus PR8 strain in the same manner as described above, and drug treatment was conducted for 4 days, starting from the second day post-infection. On the sixth day post-infection, the mice were euthanized for autopsy.
These tissues were assayed for free fatty acid levels.
To evaluate lipid droplets and influenza A virus antigen in the lung tissues, the fixed tissues were prepared into 3-μm-thick frozen sections. […] After washing, the sections were mounted with Slow-Fade Gold antifade reagent for nucleus staining.
The sections were then finely cut at 3 μm thickness, deparaffinized in xylene, and rehydrated through graded alcohols and water. […] Histological examination was then performed using an optical microscope.
Immunohistochemistry was performed for influenza A virus antigens in the lung tissue.

Series [9] has as its system Porcine respiratory reproductive syndrome virus (LMY). The conditions noted are these: Porcine respiratory reproductive syndrome virus (LMY).
Another series concerns SARS-CoV-2 (KCDC03). Nature of the series: Half-maximal viral inhibitory concentration (IC50), immunofluorescence of virus-positive cells.
The subject of series [10] is influenza A virus PR8 strain. In words: Proliferation of influenza A virus in MRC-5, NCI-H293, WI-38, and Calu-3 cells. Type of series: cell-based. The settings on record: MRC-5, NCI-H293, WI-38, Calu-3 cells; 1, 10, 20 μM; vs solvent (vehicle).
Series [11] concerns Porcine epidemic diarrhea coronavirus (QIAP1401). The conditions noted are these: Porcine epidemic diarrhea coronavirus (QIAP1401).
The mark [12] stands for this setting: 5 mg/kg/day for 4 days, sixth day post-infection.
The mark [13] stands for this setting: 5 mg/kg/day, vs untreated virus-inoculated group.

For the compound `CCN(C)C(=O)Nc1cccc(-c2ccc(N(C)C)cc2)c1` [DABPU-EM, 3-(4′-(dimethylamino)-(1,1′-biphenyl)-3-yl)-1-ethyl-1-methylurea], the “SI (CC50/IC50)” value is recorded as 62 in [1]; 127 in series [3]; 32 in series [5]; 54 in [7]; 78 in series [9]; 122 with SARS-CoV-2 (KCDC03) (SARS-CoV-2 (KCDC03)). In series [11], the “SI (CC50/IC50)” value is reported as 108. Moreover, the IC50 (usually the concentration at which inhibition is half-maximal) in series [2] stood at 1940 nM; in the series with SARS-CoV-2 (KCDC03) (Vero E6 cells, MOI 0.01 ffu/cell, drug added after 18 hours, additional 18 hours) it was 1710 nM. The “copies of genomes of each virus” value in series [4] is given as “reduced”. Further, the “production of progenies of each virus” value in series [4] was “reduced”. Moreover, the “number of viral genome copies” value in series [6] was “significantly reduced”. Besides, the “free fatty acids and glycerol concentrations in lung tissues” value in series [8] (setting [12]) is recorded as “significantly reduced”. In addition, in series [8] (setting [12]), the “progeny virus numbers in lung tissues” value is listed as “significantly reduced”. Also, the “virus gene numbers in lung tissues” value in series [8] (setting [12]) is listed as “significantly reduced”. Moreover, the “lung lesions, including interstitial pneumonia, and number of virus-positive cells” value in series [8] (setting [13]) was “alleviation and reduction”. For the same compound, in [8] (setting [13]), the “number of lipid droplets in bronchiolar epithelial cells” value is “no significant decrease”. Also, in series [8] (setting [13]), the “viral antigen in the bronchiolar epithelial cells” value is “significantly decreasing”. In series [8] (10 mg kg^−1 day^−1 intraperitoneally for four days from day 2 post infection, 15 days observation, control 100% mortality), this compound showed a survival rate of 50%. The “survival rate, weight loss, and clinical symptoms” value in series [8] (0.01 to 10 mg/kg/day, dose-dependent) is on record as “improvement”. The progeny virus number result in series [10] is recorded as “significantly reduced”. Further, the “viral genome copy number” value in series [10] is recorded as “significantly reduced”.
